# Reference: patent US11339203B2, “Antitumor peptide and use thereof” (TOAGOSEI CO., LTD., priority 2018, dated 2022)
# Read-outs that look alike come from different tables or passages of the source. Where no end group is shown, it is not given here.
# Assays:
# Format in all cases: cell-based
# Settings in all cases: 48 h
# [1] = test system: human alveolar epithelial cell carcinoma cell line (A549)
# Protocol: (§1) CAKI2 cells were cultured and adjusted to cell count of about 5×10^3 cells per single well of 96-well plate. The amount of medium at this time was made to be 100 μL per well. Next, the 96-well plate was arranged in a CO2 incubator and incubated for about 1 day (21 hours to 24 hours) under conditions of 37° C. and 5% CO2. Subsequently, peptide-containing test media were respectively prepared for each concentration so that the concentration of each sample peptide targeted for evaluation was 12.5 μM and 25 μM followed by supplying to the wells in which the cells targeted for evaluation were cultured (namely, the wells following the above-mentioned incubation) so that the amount of media was 90 μL per well. The 96-well plate was then returned to CO2 incubator followed by incubating for 48 hours under conditions of 37° C. and 5% CO2. The number of wells (n) at each concentration in each peptide addition test group was set to 3. Thus, the values of the results indicated in the following table are the average values of the results respectively obtained for 3 test wells. Cell viability (%) was determined in the manner described below. Following completion of incubation for 48 hours as described above, the medium in each well was replaced with 100 μL of fresh medium not containing peptide followed by further adding a reagent for measuring cell proliferation in the form of “Cell Counting Kit-8” (Dojindo Laboratories) containing “water-soluble tetrazolium salt (WST-8)” as a coloring reagent at 10 μL per well. Subsequently, the 96-well plate was again returned to CO2 incubator and incubated for 1.5 hours to 2 hours under conditions of 37° C. and 5% CO2. Following completion of incubation, cell viability (%) was evaluated using a colorimetric method consisting of recovering the cell culture liquid containing the above-mentioned reagent together with measuring absorbance at wavelength of 450 nm based on reduction of tetrazolium salt (value corrected for absorbance at a wavelength of 650 nm: A450 to A650). More specifically, the cell viability (%) of each test cell line was calculated from the measured absorbance as a relative value based on cell viability of 100% for the measured value (measured absorbance) of the comparison test group that underwent incubation for 48 hours as described above in only medium not containing peptide. Antitumor activity was evaluated for Sample 2 in above-mentioned Test Example 1 targeted at multiple types of human-derived cultured tumor cells. […]
# [2] = test system: human non-small cell lung cancer cell line (NCI-H2444)
# Protocol: as §1
# [3] = test system: human prostate cancer cell line (PC-3)
# Protocol: CAKI2 cells were cultured and adjusted to cell count of about 5×10^3 cells per single well of 96-well plate. The amount of medium at this time was made to be 100 μL per well. Next, the 96-well plate was arranged in a CO2 incubator and incubated for about 1 day (21 hours to 24 hours) under conditions of 37° C. and 5% CO2. […] Cell viability (%) was determined in the manner described below. […] Following completion of incubation, cell viability (%) was evaluated using a colorimetric method consisting of recovering the cell culture liquid containing the above-mentioned reagent together with measuring absorbance at wavelength of 450 nm based on reduction of tetrazolium salt (value corrected for absorbance at a wavelength of 650 nm: A450 to A650). More specifically, the cell viability (%) of each test cell line was calculated from the measured absorbance as a relative value based on cell viability of 100% for the measured value (measured absorbance) of the comparison test group that underwent incubation for 48 hours as described above in only medium not containing peptide. Antitumor activity was evaluated for Sample 2 in above-mentioned Test Example 1 targeted at multiple types of human-derived cultured tumor cells. […]
substance,measurement,setting,value
FIGNLALSDLLAGVAYTANLLLKKRTLRKNDRKKR-NH2 [Sample 2],Cell Viability (%),[1]; 12.5 μM,25.4%
same,Cell Viability (%),[1]; 25 μM,1.4%
same,Cell Viability (%),[2]; 12.5 μM,11%
same,Cell Viability (%),[2]; 25 μM,0.6%
same,Cell Viability (%),[3]; 12.5 μM,25.6%
same,Cell Viability (%),[3]; 25 μM,2.5%
